The source of these data is ChEMBL document CHEMBL5346965, “Synthesis of Bleomycin-Inspired RNA Ligands Targeting the Biogenesis of Oncogenic miRNAs” (J Med Chem, 2023).

In general, IC50 refers to the concentration that inhibits the measured activity by half. A low value points to inhibition by little substance. The term Kd denotes the free concentration of one partner at which half of the binding sites on the other are occupied at equilibrium, for simple one-to-one binding.

The target of data set [1] is microRNA 21. The data set is described as follows: Inhibition of pre-miR-21 (unknown origin) dicer cleavage activity preincubated for 30 mins followed by RNAase III addition and measured after 30 to 60 mins by FRET method. The data set is classed as functional.
Data set [2] addresses microRNA 21. Kind of data set: Binding affinity to 5'-fluorescein labeled pre-miR-21 (unknown origin) by fluorescence based assay. It is filed as nucleic-acid assay.
A short description of data set [3]: Antiproliferative activity against human N15-0385 cells incubated for 72 hrs by WST-1 assay. It is filed as functional, cell-based. As to conditions: N15-0385, 72 h.
A short description of data set [4]: Antiproliferative activity against human N13-1300 cells incubated for 72 hrs by WST-1 assay. As to conditions: N13-1300, 72 h. It is filed as functional, cell-based.
Data set [5] addresses microRNA 21. The data set is described as follows: Inhibition of pre-miR-21 (unknown origin) dicer cleavage activity preincubated for 30 mins followed by MCF7 cell lysates addition and measured after 30 to 60 mins by FRET method. It is filed as functional, subcellular.
The nature of data set [6]: Selectivity index, ratio of IC50 for inhibition of pre-miR-21 (unknown origin) dicer cleavage activity preincubated for 30 mins followed by MCF-7 cell lysates addition and measured after 30 to 60 mins by FRET method to IC50 for inhibition of pre-miR-21 (unknown origin) dicer cleavage activity preincubated for 30 mins followed by RNAase III addition and measured after 30 to 60 mins by FRET method.

For the next data set, the system named is U-87 MG. Kind of data set: Antiproliferative activity against human U87 cells incubated for 72 hrs by WST-1 assay. The data set is classed as functional, cell-based, U-87MG ATCC. On the technique in general: Formazan colour is commonly taken as a measure of viable cells.
The nature of data set [7]: Antiproliferative activity against human MRC5 cells incubated for 72 hrs by WST-1 assay. It is filed as toxicity, cell-based.
The test system of data set [8] is microRNA 21. The data set is described as follows: Inhibition of pre-miR-21 (unknown origin) dicer cleavage activity upto 1 mM preincubated for 30 mins followed by RNAase III addition and measured after 30 to 60 mins by FRET method. As to conditions: time 60-90 min. The data set is classed as functional.

The source made the active and inactive calls. The rule behind the calls is not given here. Where only a bound is given, the exact number is not on record here.

At microRNA 21 [1], `NCCCCNCCCNC(=O)c1csc(-c2csc(CCNS(=O)(=O)c3c[nH]cn3)n2)n1` yielded a half-inhibitory concentration (IC50) of 20.3 µM. This lies in the double-digit micromolar range.
`NCCCCNCCCNC(=O)c1csc(-c2csc(CCNC(=O)[C@@H](N)Cc3c[nH]cn3)n2)n1` registered a Kd at microRNA 21 [2] of 1.68 µM.
Same read-out and setting: for `Cc1ccc(S(=O)(=O)NCCc2nc(-c3nc(C(=O)NCCCNCCCCN)cs3)cs2)cc1` the value was 0.33 µM.
With `Cn1nnc2c(C(N)=O)ncn2c1=O` [TEMOZOLOMIDE], the IC50 in [3] was more than 100 µM; in [4] it was 20.8 µM.
As to `CN(C)c1ccc(/N=N/c2ccc(S(=O)(=O)NCCc3nc(-c4nc(C(=O)NCCCNCCCCN)cs4)cs3)cc2)cc1`, the IC50 against microRNA 21 [5] was found to be 6.93 µM; in [3], 37.1 µM; at microRNA 21 [1], 1.62 µM; in the data set with U-87 MG it was 45.3 µM; in data set [4], 22 µM. Besides, on microRNA 21 [2], the Kd amounted to 0.076 µM. Further, in data set [6], the Ratio IC50 came out at 4.3. In addition, the IC50 at 72 h in data set [7] was more than 100 µM.
On to `NCCCCNCCCNC(=O)c1csc(-c2csc(CCNC(=O)[C@@H](N)CCCCN)n2)n1`, for which the Kd on microRNA 21 [2] worked out at 0.835 µM.
For `NCCCCNCCCNC(=O)c1csc(-c2csc(CCNS(=O)(=O)c3cccc4cccnc34)n2)n1`, the Kd at microRNA 21 [2] is 0.33 µM.
At microRNA 21 [1], `Cc1nc(C)c(S(=O)(=O)NCCc2nc(-c3nc(C(=O)NCCCNCCCCN)cs3)cs2)s1` showed an IC50 of 75.9 µM.
As to `NCCCCNCCCNC(=O)c1csc(-c2csc(CCNS(=O)(=O)c3cc4ccccc4s3)n2)n1`, the results for the concentration for half-maximal inhibition (IC50) against microRNA 21 [5] and on microRNA 21 [1] were 55.5 µM and 11.8 µM, respectively. At microRNA 21 [2], this compound displayed a dissociation constant (Kd) of 0.33 µM. Moreover, the Ratio IC50 in data set [6] was 4.7.
On microRNA 21 [2], `NCCCCNCCCNC(=O)c1csc(-c2csc(CCN)n2)n1` returned a Kd of 3.63 µM. Moreover, the IC50 in data set [3] was more than 100 µM; in the data set on U-87 MG, 37.4 µM; in data set [4] it was 67.3 µM. Moreover, in the data set on microRNA 21 [1] (time 60-90 min), the inhibition entry is “inactive”. Besides, the IC50 at 72 h in data set [7] was 16.6 µM.
On microRNA 21 [2], `NCCCCNCCCNC(=O)c1csc(-c2csc(CCNS(=O)(=O)c3ccc4ccccc4c3)n2)n1` came in with a Kd of 0.33 µM.
Take `NCCCCNCCCNC(=O)c1csc(-c2csc(CCNCc3ccc4scnc4c3)n2)n1`: the IC50 on microRNA 21 [5] was found to be 4.68 µM; in [3], 44.7 µM; on microRNA 21 [1], 3.74 µM; in the data set on U-87 MG, 16.5 µM; in [4] it was 24.5 µM. For the same compound, in data set [6], the Ratio IC50 amounted to 1.3. The compound also showed an IC50 at 72 h in data set [7] of more than 100 µM.
With `NCCCCNCCCNC(=O)c1csc(-c2csc(CCNC(=O)CCCC[C@@H]3SC[C@@H]4NC(=O)N[C@@H]43)n2)n1`, the inhibition entry in the data set on microRNA 21 [5] (time 60-90 min) is “inactive”. Moreover, binding at microRNA 21 [2] was characterised by a dissociation constant (Kd) of 1.91 µM. The compound also returned an IC50 against microRNA 21 [1] of 38.3 µM.
For `NCCCCNCCCNC(=O)c1csc(-c2csc(CCNCc3ccccc3)n2)n1`, the IC50 turned out to be 195 µM against microRNA 21 [5] and 31.2 µM against microRNA 21 [1]. Besides, the Ratio IC50 in [6] was determined as 6.2.
On the same counts, the results for `NCCCCNCCCNC(=O)c1csc(-c2csc(CCNCc3ccc4[nH]cnc4c3)n2)n1` are 50.1 µM, 20.3 µM and 2.5.
On to `CC(C)(C)c1ccc(S(=O)(=O)NCCc2nc(-c3nc(C(=O)NCCCNCCCCN)cs3)cs2)cc1`, for which the IC50 on microRNA 21 [5] was determined as 92.8 µM; on microRNA 21 [1], 16.4 µM. The same compound showed a Kd at microRNA 21 [2] of 0.33 µM. Further, in data set [6], the Ratio IC50 was 5.6.
For `Cc1c(N)nc([C@H](CC(N)=O)NC[C@H](N)C(N)=O)nc1C(=O)N[C@H](C(=O)N[C@H](C)[C@@H](O)[C@H](C)C(=O)N[C@H](C(=O)NCCc1nc(-c2nc(C(=O)NCCCNCCCCN)cs2)cs1)[C@@H](C)O)[C@@H](O[C@@H]1O[C@@H](CO)[C@@H](O)[C@H](O)[C@@H]1O[C@@H]1O[C@H](CO)[C@@H](O)[C@H](OC(N)=O)[C@@H]1O)c1cnc[nH]1`, the inhibition entry in the data set on microRNA 21 [8] was “inactive”. At microRNA 21 [2], this compound displayed a Kd of 12.6 µM.
Turning to `C#CCCCCC(=O)NCCc1nc(-c2nc(C(=O)NCCCNCCCCN)cs2)cs1`, binding at microRNA 21 [2] was characterised by a dissociation constant (Kd) of 1.87 µM. This lies in the single-digit micromolar range.
In the case of `NCCCCNCCCNC(=O)c1csc(-c2csc(CCNC(=O)c3ccc4cccnc4n3)n2)n1`, binding at microRNA 21 [2] was put at a Kd of 0.4 µM.
